Laboratory results: patent publication US20220362227A1, “COMPOSITION OF PHYTONUTRIENTS FOR DIABETES MANAGEMENT” (ROSEMAN UNIVERSITY OF HEALTH SCIENCES, priority 2021, published 2022)

Experiments:
[1] = system: primary human preadipocytes; assay: Adipogenesis assay (adipogenic biomarkers, Oil Red O staining); type: cell-based; conditions: for EC50: read-out: EC50 (anti-adipogenic phytonutrients)
Description: Adipogenesis Assays. Primary human preadipocytes were grown to confluence in growth media. At 2 days post-confluence, growth media were aspirated off the culture dishes and complete differentiation media were added. Complete differentiation media comprise […] with 18.5 mM glucose, HEPES (15 mM), NaHCO3 (25 mM), 100 units/ml penicillin, 100 μg/ml streptomycin, d-biotin (33 μM), pantothenate (17 μM), dexamethasone (100 nM), insulin (100 nM), rosiglitazone (1 μM), IBMX (0.5 mM), triiodothyronine (T3, 2 nM), and transferrin (10 μg/ml). On day three post-differentiation, complete differentiation media were replenished. On day seventh post-differentiation, complete differentiation media were replaced with maintenance media. Maintenance media comprise […], 100 units/ml penicillin, 100 μg/ml streptomycin, HEPES (15 mM), NaHCO3 (25 mM), d-biotin, pantothenate, insulin (10 nM), and dexamethasone (10 nM). Maintenance media were replenished on days tenth post-differentiation. Complete differentiation of preadipocytes into adipocytes were achieved on day fourteenth post-differentiation. To screen for anti-adipogenic phytonutrients, individual phytonutrients were mixed in complete differentiation media from day 0 to day 6th post-differentiation. Phytonutrients were removed together with complete differentiation media on day 7th post-differentiation following the replacement with maintenance media. Anti-adipogenic phytonutrients were identified based on their ability to: (1) suppress the expression of adipogenic biomarkers using proteomic assays of total cell extracts collected on day 6th post-differentiation, and (2) suppress intracellular lipid droplet accumulation using Oil Red O staining assays on day 14th post-differentiation.

[2] = system: Akt2; assay: Screening for insulin-sensitizing phytonutrients: cIEF immunoassays of Akt2 phosphorylation; type: cell-based, human; conditions: for Akt2 phosphorylation on cIEF electropherogram: treatment alone, 30 minutes, versus untreated control; for EC50: half-maximal effective concentration, primary human preadipocytes; for increase of insulin-stimulated pAkt2 (Ser473) phosphorylation: together with 100 nM insulin, compared to insulin alone, cIEF
From the text: (§1) Mapping Akt Isoforms Using Capillary Isoelectric Focusing (cIEF) Immunoassays. cIEF immunoassays separate proteins in total cell extracts (TCEs) by their isoelectric points (pIs) in nano-capillaries. The positions of the proteins are stabilized via UV-irradiated crosslinking of proteins to the sidewalls of the capillaries. A primary antibody that recognizes a specific protein of interest is introduced to individual capillaries. Then a secondary antibody linked to horseradish peroxidase is introduced. Following the introduction of the chemiluminescent substrates, the distribution of the isoforms of a protein is detected and presented graphically as electropherograms of intensity versus isoelectric points. Phosphorylation and acetylation of a protein generally leads to shifts toward lower pI values. In contrast, glycosylation of a protein generally leads to a shift toward higher pI values.
(§2) Human Primary Preadipocytes. Primary human preadipocytes were isolated from omental adipose tissues overweight and diabetic donors who were undergoing elective surgery using a previously published protocol. Primary human preadipocytes were maintained in growth media comprising Minimum Essential Medium a supplemented with 10% fetal bovine serum, 100 units/ml penicillin, and 100 μg/ml streptomycin.
(§3) Screening for Insulin-Sensitizing Phytonutrients. Primary human preadipocytes were treated for 30 minutes with 100 nM insulin (Humulin R, Eli Lilly, Indianapolis, Ind.), individual phytonutrients (Table 1 & Table 2), or combinations of insulin and phytonutrients. Total cell extracts (TCE) were collected and subjected to nanofluidic proteomic analysis including capillary isoelectric focusing (cIEF) immunoassays and capillary Western (CW) immunoassays.
(§4) Preparation of Total Cell Extracts. Approximately one million cells were incubated on ice for 10 minutes with 60 μl of lysis buffer (cat. no. 040-764, ProteinSimple, Santa Clara, Calif., USA), sonicated 4 times for 5 seconds each, mixed by rotation for 2 hours at 4° C., and centrifuged at 12,000 rpm in an Eppendorf 5430R microfuge for 20 minutes at 4° C. The supernatant was collected as the cell lysate. The total protein concentration in the cell lysate was determined with a Bradford protein assay and adjusted to a final concentration of 0.3 μg/μl with separation gradients (cat. no. Premix G2, pH 5-8, ProteinSimple, Santa Clara, Calif.) for charge-based cIEF immunoassays or to 0.4 μg/μl with denaturing buffers (cat. no. PS-ST01EZ or PS-ST03EZ, ProteinSimple) for size-based Western immunoassays.
(§5) Capillary Isoelectric Focusing Immunoassays. Cell lysates in separation gradients were loaded into 384-well assay plates (cat. no. 040-663, ProteinSimple) preloaded with primary and secondary antibodies and chemiluminescent substrates. Charge-based protein separation and detection in individual capillaries were performed using the default protocols of the NanoPro 1000 system (ProteinSimple). Hsp70 was used as the loading control. All cIEF immunoassays were performed in triplicate for each protein, and duplicate experiments were performed for each treatment condition, producing six repeated measurements per protein.

[3] = system: Akt; assay: Capillary Western and cIEF immunoassays of pAkt (Thr308), pAkt (Thr450), pAkt (Ser473); type: cell-based, human; conditions: for increase of pAkt (Ser473) phosphorylation / increase of pAkt (Thr308) phosphorylation / increase of pAkt (Thr450) phosphorylation: 30 minutes treatment, versus untreated control, capillary Western densitometry
Description: as §2, §3, §4, §5
Capillary Western Immunoassays. Cell lysates in denaturing buffers were denatured at 95° C. for 5 minutes, and then transferred to assay plates (cat. no. SM-W004 or SM-W008, ProteinSimple) preloaded with blocking reagents, wash buffer, primary and secondary antibodies, and chemiluminescent substrates. Sized-based protein separation and detection in capillaries were performed using the default protocols of the Jess system (ProteinSimple). β-Actin was used as loading controls. All capillary Western immunoassays were performed in triplicate for each protein, and duplicate experiments were performed for each treatment condition, producing six repeated measurements per protein.

[4] = system: Akt1; assay: cIEF immunoassays of Akt1; type: cell-based, human; conditions: for Akt1 cIEF electropherogram: treatment alone, 30 minutes, versus untreated
From the text: as §1, §3
as §4, with “The supernatant was collected as the cell lysate.” left out, “immunoassays. […]” for “immunoassays.”

[5] = system: Akt3; assay: cIEF immunoassays of Akt3; type: cell-based, human; conditions: for Akt3 cIEF electropherogram: treatment alone, 30 minutes, versus untreated
From the text: as §1, §3
as §4, with “The supernatant was collected as the cell lysate.” left out, “immunoassays. […]” for “immunoassays.”

[6] = system: primary human preadipocytes; assay: Glucose uptake assay (2-NBDG, flow cytometry); type: cell-based; conditions: together with 100 nM insulin, compared to insulin alone, 30 minutes
Description: The glucose uptake assay used 2-NBDG, a fluorescently-labeled deoxyglucose analog, as a probe for the detection of glucose taken up by human primary preadipocytes. Flow cytometry was used to detect 2-NBDG uptake in single preadipocytes.
Glucose Uptake Assays. Primary human preadipocytes grown to 70% confluence in growth media, washed with phosphate buffered saline, and replaced with glucose-free DMEM media. Following 2 hours of incubation in glucose-free DMEM media, preadipocytes were treated with 100 μg/ml of 2-NDBG fluorescent glucose analog and insulin (100 nM) or phytonutrients (EC50) for 30 minutes. Preadipocytes were collected and analyzed using the Acuri C6 flow cytometer (BD Biosciences, San Jose, Calif.) and the 485 nm excitation and 535 nm emission filters.

[7] = half-maximal effective concentration, primary human preadipocytes
[8] = together with insulin, compared to insulin alone

Compound: O=c1c(O)c(-c2ccc(O)c(O)c2)oc2cc(O)ccc12 [Fisetin]
- EC50 [1, 7]: 50 µM

Compound: O=c1cc(-c2ccc(O)c(O)c2)oc2cc(O)cc(O)c12 [Luteolin]
- EC50 [1, 7]: 20 µM

Compound: insulin: 100 nM insulin (Humulin R, Eli Lilly) [reference compound]
- Akt2 phosphorylation on cIEF electropherogram [2]: two new peaks at pI 5.20 and pI 5.30
- increase of pAkt (Ser473) phosphorylation [3]: ~5.7 folds
- increase of pAkt (Thr308) phosphorylation [3]: approximately 3 folds
- increase of pAkt (Thr450) phosphorylation [3]: ~1.6 folds
- Akt1 cIEF electropherogram [4]: nearly identical
- Akt3 cIEF electropherogram [5]: two new peaks at pI 5.03 and pI 5.12

Compound: COc1cc(/C=C/C(=O)CC(=O)/C=C/c2ccc(O)c(OC)c2)ccc1O [Curcumin]
- EC50 [2]: 20 µM
- increase of insulin-stimulated pAkt2 (Ser473) phosphorylation [2]: approximately 4 folds
- Akt2 phosphorylation on cIEF electropherogram [2]: new peak at pI 5.41
- increase of insulin-stimulated glucose uptake by preadipocytes [6]: ~1.7 folds

Compound: O=CC=Cc1ccccc1 [Cinnamaldehyde]
- EC50 [2]: 40 µM
- Akt2 phosphorylation on cIEF electropherogram [2]: new peak at pI 5.41
- increase of pAkt (Ser473) phosphorylation [3]: no effect
- increase of pAkt (Thr308) phosphorylation [3]: no effect
- increase of pAkt (Thr450) phosphorylation [3]: 1.6 folds
- increase of insulin-stimulated pAkt (Ser473) phosphorylation ([3]; together with 100 nM insulin, compared to insulin alone, cIEF and CW immunoassays): ~4 folds
- increase of insulin-stimulated glucose uptake by preadipocytes [6]: approximately 1.6 folds
- phosphorylation of Akt1 on cIEF electropherogram [4, 8]: no observable effect
- Akt1 cIEF electropherogram [4]: no observable effect
- phosphorylation of Akt3 on cIEF electropherogram [5, 8]: no observable effect
- Akt3 cIEF electropherogram [5]: no observable effect

Compound: Oc1ccc(C=Cc2cc(O)cc(O)c2)cc1 [Resveratrol]
- EC50 [1, 7]: 40 µM

Compound: O=C(O[C@@H]1Cc2c(O)cc(O)cc2O[C@@H]1c1cc(O)c(O)c(O)c1)c1cc(O)c(O)c(O)c1 [Epigallocatechin Gallate]
- EC50 [1, 7]: 20 µM

Compound: O=c1c(O)c(-c2ccc(O)c(O)c2)oc2cc(O)cc(O)c12 [Quercetin]
- EC50 [1, 7]: 25 µM

Compound: Fucoidan
- EC50 (anti-adipogenic phytonutrients) [1, 7]: 100 µg/mL

Compound: OCc1c[nH]c2ccccc12 [Indole-3-Carbinol]
- EC50 [1, 7]: 20 µM

Compound: COc1ccc2cc3[n+](cc2c1OC)CCc1cc2c(cc1-3)OCO2 [Berberine]
- increase of insulin-stimulated pAkt2 (Ser473) phosphorylation [2]: no effect
- Akt2 phosphorylation on cIEF electropherogram [2]: no effect
- increase of insulin-stimulated glucose uptake by preadipocytes [6]: no effect
- inhibition of adipogenesis ([1]; differentiating primary human preadipocytes): strong inhibitor of adipogenesis
- EC50 [1, 7]: 10 µM

Compound: COc1ccc([C@@H]2CC(=O)c3c(O)cc(O[C@@H]4O[C@H](CO[C@@H]5O[C@@H](C)[C@H](O)[C@@H](O)[C@H]5O)[C@@H](O)[C@H](O)[C@H]4O)cc3O2)cc1O [Hesperidin]
- EC50 [1, 7]: 20 µM
